Measurements published in patent US20210395256A1, “TYROSINE KINASE INHIBITORS, COMPOSITIONS AND METHODS THERE OF” (Betta Pharmaceuticals Co., Ltd., priority 2018, published 2021).
Read-outs that look alike come from different tables or passages of the source.

Legend:
NTRK1-G595R = NTRK1-G595R (Homo sapiens, UniProt P04629, G595R); experiment: NTRK1-G595R cell proliferation assay (Table 13); format: cell-based
TrkA kinase = TrkA kinase (Homo sapiens, UniProt P04629); experiment: TrkA kinase assay (mobility shift assay); format: biochemical; conditions: read-out: Trk A Kinase IC50
Procedure, shortened: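 Caliper mobility-shift readout of FAM-labelled peptide conversion by TrkA in 50 mM HEPES pH 7.5, 0.0015% Brij-35, with ATP; enzyme preincubated 10 min with compound (10-point dilution), reaction at 28 °C, EDTA stop. Inhibition relative to DMSO and no-enzyme controls; IC50 by four-parameter fit.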

Ba/F3-TPM3-NTRK1 = biological target: T1, Ba/F3-TPM3-NTRK1 (Homo sapiens, UniProt P04629); experiment: Ba/F3-TPM3-NTRK1 cells proliferation assay; format: cell-based; conditions: 72 h, CellTiter Glo
T1 construct: expressed in transfected cells; host or cells: Ba/F3; the other entry of the earlier key: TPM3 (P06753, Tropomyosin alpha-3 chain)
Method: Example 202 Ba/F3-TPM3-NTRK1 and Ba/F3-ETV6-NTRK3 cells proliferation assay
Cell line: Ba/F3 cells with TPM3-NTRK1 or ETV6-NTRK3 fusion mutation gene stably overexpressed named Ba/F3-TPM3-NTRK1 and Ba/F3-ETV6-NTRK3.
RPMI 1640 and 10% FBS and 1% PS and 2 ug/mL puromycin.
b) Collect cell to a 15 mL centrifuged tube, centrifuge at 1000 rpm for 5 min. Discard the supernatant, count, and make the cell density at 1.49×10^4 cells/mL, then place it in a 37° C., 5% CO2 incubator.
a) The test compound (20 mM stock solution) was diluted to 60 μM with 100% DMSO as starting concentration then 3-fold serial diluted with “9+0” concentrations. in a 96-well dilution plate (Thermo, Cat. No. 249944);
b) The above compound solution was diluted 1:20 times with culture medium to prepare a 10 fold working solution;
a) Take cells in log phase growth, centrifuge at 1000 rpm for 5 min, then resuspend the cells with culture medium, then count cells;
b) Cells were seeded to 96-well cell culture plate with density at 2000 cells/well;
a) Compounds prepared at step 2 were added to cell plate with 15 μL per well, the final concentrations were 300, 100, 33.33, 11.11, 3.70, 1.23, 0.41, 0.14, 0.05 and 0 nM, and the final concentration of DMSO was 0.5%. The blank control well was a culture medium (0.5% DMSO);
c) The cells were incubated for an additional 72 h in the incubator.
a) Remove the 96-well cell culture plate and add 50 μl of CTG reagent (CellTiter Glo kit, promega, Cat #G7573).
b) Plate was shaked for 2 min and then let it cool for 30 min at room temperature.
c) The Luminescence signal value was read using a PerkinElmer reader.
Experimental Data Analysis
Data were analyzed using GraphPad Prism 6.0 software to obtain a fitted curve of compound activity.
Fit the Compound IC50 from non-linear regression equation:
Y=Bottom+(Top-Bottom)/(1+10^((Log IC50-X)×HillSlope));
X: The log of the concentration of the compound; Y: Luminescence value.

[1] = Liver microsomes metabolic stability assay, rat; format: in vitro ADME; conditions: male, rat liver microsomes 0.5 mg/mL, 37° C.; for half-life at 2 μM: read-out: t1/2 Rat
Procedure, shortened: (§1)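 Pooled human, male rat or male mouse liver microsomes (0.5 mg/mL final) incubated at 37° C with 2 μM compound, with or without 1 mM NADPH. Samples at 0-60 min quenched in cold acetonitrile and analyzed by LC-MS/MS in duplicate. t1/2 derived from ln(% remaining) vs time slope, converted to CLint (μL/min/mg).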

[2] = Liver microsomes metabolic stability assay, human; format: in vitro ADME; conditions: human liver microsomes 0.5 mg/mL, 37° C.; for half-life at 2 μM: read-out: t1/2 Human
Procedure, shortened: as §1

[3] = Liver microsomes metabolic stability assay, mouse; format: in vitro ADME; conditions: male, mouse liver microsomes 0.5 mg/mL, 37° C.; for half-life at 2 μM: read-out: t1/2 Mouse
Procedure, shortened: as §1

[4] = Plasma protein binding (equilibrium dialysis), mouse; format: in vitro ADME; conditions: pH 7.4, 6 hours dialysis
Method: (§2) Example 204 Plasma Protein Binding Measurements
(§3) The plasma protein binding was measured as the following procedure.
(§4) 1) Preparation of 100 mM sodium phosphate and 150 mM NaCl buffer (PBS)
(§5) A basic solution was prepared by dissolving 14.2 g/L Na2HPO4 and 8.77 g/L NaCl in deionized water and the solution could be stored at 4° C. for up to 7 days. An acidic solution was prepared by dissolving 12.0 g/L NaH2PO4 and 8.77 g/L NaCl in deionized water and the solution could be stored at 4° C. for up to 7 days. The basic solution was titrated with the acidic solution to pH 7.4 and store at 4° C. for up to 7 days. pH was checked on the day of experiment and was adjusted if outside specification of 7.4±0.1.
(§6) Frozen plasma was thawed immediately at room temperature.
(§7) The plasma was centrifuged at 3,220 g for 10 minutes to remove clots and supernatant was collected into a fresh tube. The pH of the plasma was checked and recorded.
(§8) Note: a). Only use plasma that has been thawed no more than twice since arrival. b). Only use plasma within the range of pH 7 to pH 8.
(§9) 3) Preparation of working solutions
(§10) The working solutions of test compounds and control compound ketoconazole were prepared in DMSO at the concentration of 200 μM. And then 3 μL of working solution was removed to mix with 597 μL of human, rat or mouse plasma to achieve a final concentration of 1 μM (0.5% DMSO). Plasma samples were vortexed thoroughly.
(§11) 4) Preparation of dialysis membranes
(§12) The dialysis membranes were soaked in ultrapure water for 60 minutes to separate strips, then in 20% ethanol for 20 minutes, finally in dialysis buffer for 20 minutes.
(§13) 5) Procedure for equilibrium dialysis
(§14) The dialysis apparatus was assembled according to the manufacturer's instruction. Each cell was filled with 120 μL of plasma sample and dialyzed against equal volume of dialysis buffer (PBS). The assay was performed in duplicate. The dialysis plate was sealed and incubated in an incubator at 37° C. with 5% CO2 at 100 rpm for 6 hours. At the end of incubation, seal was removed and 50 μL of samples from both buffer and plasma chambers were transferred to wells of a 96-well plate.
(§15) 6) Procedure for sample analysis
(§16) 50 μL of blank plasma was added to each buffer samples and an equal volume of PBS was supplemented to the collected plasma sample. 300 μL of room temperature quench solution (acetonitrile containing internal standards (1S, 100 nM Alprazolam, 500 nM Labetalol and 2 μM Ketoprofen)) was added to precipitate protein. Samples in plate were vortexed for 5 minutes and centrifuged at 3,220 g for 30 minutes at 4° C. And then 100 μL of the supernatant was transferred to a new 96-well plate with 100 μL or 200 μL water (depends on the LC-MS signal response and peak shape) for LC-MS/MS analysis.
(§17) Calculate the percentages of test compound and control compound bound as follows:
(§18) % Free=(Peak Area Ratiobuffer chamber/Peak Area Ratioplasma chamber)*100
(§19) % Recovery=(Peak Area Ratiobuffer chamber+Peak Area Ratioplasma chamber)/Peak Area Ratio total sample*100
(§20) Peak Area Ratiobuffer chamber means the conc for free fraction
(§21) Peak Area Ratioplasma chamber means the conc for both free and bound fraction
(§22) Peak Area Ratiototal sample means the conc for starting sample before incubation

[5] = Plasma protein binding (equilibrium dialysis), human; format: in vitro ADME; conditions: pH 7.4, human plasma, 1 μM, 6 hours dialysis
Method: as §2, §3, §4, §5, §6, §7, §8, §9, §10, §11, §12, §13, §14, §15, §16, §17, §18, §19, §20, §21, §22

[6] = Plasma protein binding (equilibrium dialysis), rat; format: in vitro ADME; conditions: pH 7.4, 6 hours dialysis
Method: as §2, §3, §4, §5, §6, §7, §8, §9, §10, §11, §12, §13, §14, §15, §16, §17, §18, §19, §20, §21, §22

Chain of NTRK1-G595R (P04629 33-796 G595R): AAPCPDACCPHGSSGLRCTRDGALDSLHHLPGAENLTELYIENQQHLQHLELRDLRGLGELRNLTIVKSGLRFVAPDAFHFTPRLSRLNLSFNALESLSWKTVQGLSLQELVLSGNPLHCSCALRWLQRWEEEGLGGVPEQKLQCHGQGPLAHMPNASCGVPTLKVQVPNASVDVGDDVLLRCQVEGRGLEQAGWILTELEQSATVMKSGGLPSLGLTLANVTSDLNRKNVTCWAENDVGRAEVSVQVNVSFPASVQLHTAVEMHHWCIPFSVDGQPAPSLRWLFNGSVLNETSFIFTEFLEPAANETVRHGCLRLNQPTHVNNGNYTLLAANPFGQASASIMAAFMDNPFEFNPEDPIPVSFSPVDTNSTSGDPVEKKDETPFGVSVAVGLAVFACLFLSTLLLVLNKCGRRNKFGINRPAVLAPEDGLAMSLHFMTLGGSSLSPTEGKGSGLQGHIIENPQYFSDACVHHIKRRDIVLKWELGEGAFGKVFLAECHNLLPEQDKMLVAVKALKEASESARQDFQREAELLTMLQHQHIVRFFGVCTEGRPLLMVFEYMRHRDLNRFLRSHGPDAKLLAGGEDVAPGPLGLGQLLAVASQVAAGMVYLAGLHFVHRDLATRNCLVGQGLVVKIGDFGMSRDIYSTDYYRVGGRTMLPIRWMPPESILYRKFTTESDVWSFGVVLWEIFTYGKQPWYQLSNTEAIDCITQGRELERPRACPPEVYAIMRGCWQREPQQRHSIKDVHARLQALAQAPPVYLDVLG
T1 sequence (P04629 510-796 limits assumed): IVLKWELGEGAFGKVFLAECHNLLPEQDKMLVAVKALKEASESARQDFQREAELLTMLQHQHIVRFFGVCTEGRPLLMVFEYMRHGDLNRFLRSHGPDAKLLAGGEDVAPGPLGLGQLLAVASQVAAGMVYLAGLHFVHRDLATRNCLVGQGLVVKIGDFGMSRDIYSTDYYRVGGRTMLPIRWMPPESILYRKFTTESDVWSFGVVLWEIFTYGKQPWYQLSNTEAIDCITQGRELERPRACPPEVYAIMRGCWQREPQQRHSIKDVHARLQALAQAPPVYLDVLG
Chain of TrkA kinase (P04629 33-796): as the sequence (P04629 33-796 G595R) above, with R563G counted along it

| IC50 (NTRK1-G595R) | IC50 (TrkA kinase; numeric values) | IC50 (Ba/F3-TPM3-NTRK1) | microsomal CLint at 2 μM [1] | half-life at 2 μM [1] | microsomal CLint at 2 μM [2] | half-life at 2 μM [2] | microsomal CLint at 2 μM [3] | half-life at 2 μM [3] | IC50 (TrkA kinase; class symbols) | recovery at 6 h, 1 μM [4] | fraction unbound at 6 h, 1 μM ([4]; read-out: Mean % Bound Mouse (converted)) | recovery at 6 h, 1 μM [5] | fraction unbound at 6 h, 1 μM ([5]; read-out: Mean % Bound Human (converted)) | recovery at 6 h, 1 μM [6] | fraction unbound at 6 h, 1 μM ([6]; read-out: Mean % Bound Rat (converted)) | SMILES |
| --- | --- | --- | --- | --- | --- | --- | --- | --- | --- | --- | --- | --- | --- | --- | --- | --- |
| 62.9 nM | 0.79 nM | 1.38 nM |  |  |  |  |  |  |  |  |  |  |  |  |  | OCc1cc2nc(-c3cnn4ccc(N5CCC[C@@H]5c5cc(F)ccc5F)nc34)oc2cc1F [Compound 94, (R)-(2-(5-(2-(2,5-difluorophenyl)pyrrolidin-1-yl)pyrazolo[1,5-a]pyrimidin-3-yl)-6-fluorobenzo[d]oxazol-5-yl)methanol] |
| 165 nM | 0.4 nM | 0.28 nM | 105 µL/min/mg | 13.2 min | 49.4 µL/min/mg | 28.1 min | 103 µL/min/mg | 13.5 min |  |  |  |  |  |  |  | COCCOc1cc2nc(-c3cnn4ccc(N5CCC[C@@H]5c5cc(F)ccc5F)nc34)[nH]c2cc1OCCOC [Compound 101, (R)-3-(5,6-bis(2-methoxyethoxy)-1H-benzo[d]imidazol-2-yl)-5-(2-(2,5-difluorophenyl)pyrrolidin-1-yl)pyrazolo[1,5-a]pyrimidine] |
| 221 nM | 1.1 nM | 3.39 nM |  |  |  |  |  |  |  |  |  |  |  |  |  | CN(C)c1cc2[nH]c(-c3cnn4ccc(N5CCC[C@@H]5c5cc(F)ccc5F)nc34)nc2cc1C#N [Compound 144, (R)-2-(5-(2-(2,5-difluorophenyl)pyrrolidin-1-yl)pyrazolo[1,5-a]pyrimidin-3-yl)-6-(dimethylamino)-1H-benzo[d]imidazole-5-carbonitrile] |
| 89.8 nM |  | 2.19 nM | 45.2 µL/min/mg | 30.7 min | 46.6 µL/min/mg | 29.7 min | 97.6 µL/min/mg | 14.2 min | ≤ 10 nM |  |  |  |  |  |  | CS(=O)(=O)c1cc2nc(-c3cnn4ccc(N5CCC[C@@H]5c5cc(F)ccc5F)nc34)[nH]c2cc1C(N)=O [Compound 173, (R)-2-(5-(2-(2,5-difluorophenyl)pyrrolidin-1-yl)pyrazolo[1,5-a]pyrimidin-3-yl)-5-(methylsulfonyl)-1H-benzo[d]imidazole-6-carboxamide] |
| 106 nM |  | 1.04 nM | 21 µL/min/mg | 66 min | 42.2 µL/min/mg | 32.8 min | 33.4 µL/min/mg | 41.5 min | ≤ 10 nM |  |  |  |  |  |  | CSc1cc2nc(-c3cnn4ccc(N5CCC[C@@H]5c5cc(F)ccc5F)nc34)[nH]c2cc1C#N [Compound 126, (R)-2-(5-(2-(2,5-difluorophenyl)pyrrolidin-1-yl)pyrazolo[1,5-a]pyrimidin-3-yl)-5-(methylthio)-1H-benzo[d]imidazole-6-carbonitrile] |
| 119 nM | 0.6 nM | 1.33 nM |  |  |  |  |  |  |  |  |  |  |  |  |  | Fc1ccc(F)c([C@H]2CCCN2c2ccn3ncc(-c4nc5cc(CN6CCOCC6)ccc5[nH]4)c3n2)c1 [Compound 162, (R)-4-((2-(5-(2-(2,5-difluorophenyl)pyrrolidin-1-yl)pyrazolo[1,5-a]pyrimidin-3-yl)-1H-benzo[d]imidazol-5-yl)methyl)morpholine] |
| 117 nM |  | 1.9 nM | 60.8 µL/min/mg | 22.8 min | 94.1 µL/min/mg | 14.7 min | 39 µL/min/mg | 35.5 min | ≤ 10 nM |  |  |  |  |  |  | N#Cc1cc2[nH]c(-c3cnn4ccc(N5CCC[C@@H]5c5cc(F)ccc5F)nc34)nc2cc1F [Compound 123, (R)-2-(5-(2-(2,5-difluorophenyl)pyrrolidin-1-yl)pyrazolo[1,5-a]pyrimidin-3-yl)-5-fluoro-1H-benzo[d]imidazole-6-carbonitrile] |
|  | 0.71 nM | 3.33 nM |  |  |  |  |  |  |  | 98.6% | 0.0918 | 91.7% | 0.0868 | 92.4% | 0.109 | C[C@@H](O)c1nnc(-c2cnn3ccc(N4CCC[C@@H]4c4cc(F)ccc4F)nc23)[nH]1 [Compound 34, (R)-1-(5-(5-((R)-2-(2,5-difluorophenyl)pyrrolidin-1-yl)pyrazolo[1,5-a]pyrimidin-3-yl)-4H-1,2,4-triazol-3-yl)ethan-1-ol] |
| 103 nM |  | 2.91 nM | 78.4 µL/min/mg | 17.7 min | 55.8 µL/min/mg | 24.8 min | 102 µL/min/mg | 13.5 min | ≤ 10 nM |  |  |  |  |  |  | COCCOc1cc2[nH]c(-c3cnn4ccc(N5CCC[C@@H]5c5cc(F)ccc5F)nc34)nc2cc1C#N [Compound 169, (R)-2-(5-(2-(2,5-difluorophenyl)pyrrolidin-1-yl)pyrazolo[1,5-a]pyrimidin-3-yl)-6-(2-methoxyethoxy)-1H-benzo[d]imidazole-5-carbonitrile] |
